Each structure is given as a SMILES string.

Data on one compound can be found in US8389027B2 (priority 2008, dated 2013).

Assay [1] has as its system wild-type S. pombe. Kind of assay: Estimation of minimum inhibitory concentration for S. pombe. The assay is classed as cell-based, Schizosaccharomyces pombe. To be noted: different concentrations, 6 h incubation. How it is done: Approximately, 1×10^7 cells/ml from overnight grown culture of MBY 104 was inoculated in 20 ml fresh YES medium in 250 ml flasks. The cells were incubated at 25° C. on a shaker in absence or presence of different concentrations of digoxin. A stock of 1 mM standard glycosides (Sigma Aldrich, USA) was prepared by adding 7.8 mg, 3.9 mg, and 7.28 mg of digoxin, digoxigenin, and ouabain, respectively, in 10 ml of 50% ethanol. A working stock of 200 μM solution was prepared by diluting 1 mM stock with fresh YES medium. Further dilutions were made from this working stock by adjusting total volume with YES to 20 ml. Cell density of untreated or treated wild-type yeast cells was checked in terms of absorbance after every one hour over 5 to 6 generations. Experiments were performed in duplicate each time and confirmed by several biological replicates.
Wild-type S. pombe cells were grown in absence or presence of different concentrations of digoxin, digoxigenin, or ouabain and growth kinetics was studied over 6-8 h.

The test system of assay [2] is Magnaporthe Guy11 on detached barley leaf. The assay is classed as in vivo, Magnaporthe grisea. To be noted: 200 μM.
Assay [3] concerns S. pombe strain expressing M. grisea Abc3 (MBY 2838). The assay is classed as cell-based, Schizosaccharomyces pombe. The note with it: MBY 2838, compound in growth medium.
The subject of assay [4] is rice or barley leaf tissue. The assay is classed as in vivo.
Another assay concerns Zebra fish larvae heart. Type of assay: in vivo, Danio rerio. The note with it: at 26 (h of treatment); control 12.71.
Assay [5] concerns wild-type M. grisea Guy11 on rice leaf sheath or onion epidermis. Type of assay: in vivo, Magnaporthe grisea. To be noted: summary statement.
The subject of assay [6] is wild-type S. pombe. The assay is classed as cell-based, Schizosaccharomyces pombe.

Take `C[C@H]1O[C@@H](O[C@H]2[C@@H](O)C[C@H](O[C@H]3[C@@H](O)C[C@H](O[C@H]4CC[C@@]5(C)[C@H](CC[C@@H]6[C@@H]5C[C@@H](O)[C@]5(C)[C@@H](C7=CC(=O)OC7)CC[C@]65O)C4)O[C@@H]3C)O[C@@H]2C)C[C@H](O)[C@@H]1O` [digoxin]: the “absorbance of treated S. pombe cells” value in the assay on wild-type S. pombe [1] is recorded as “decrease in absorbance in a dose dependent manner”. The “disease symptoms on detached barley leaf” value in assay [2] (controls symptomatic from day 3) is given as “failed to elicit any disease symptoms”. Moreover, the “disease symptoms, leaves inoculated with 100 conidia per droplet” value in assay [2] (6 dpi, 100 conidia per droplet) is “did not show any symptoms”. Also, the “severity of disease compared to control leaves” value in assay [2] (day 6 post inoculation) is recorded as “significantly reduced”. Also, the “effect on S. pombe cells expressing M. grisea Abc3p” value in assay [3] is given as “did not show any effects”. Moreover, the “elicitor-like response in the host plants” value in assay [4] (exogenous application to leaf tissue) is listed as “induced hypersensitive reaction”. Further, the “H2O2 level as Cerium perhydroxide precipitate (CeCl3 staining, TEM)” value in assay [4] (treated leaf tissue, 48 h) was “accumulation of Cerium perhydroxide precipitate in the cell wall and cell membrane”. In addition, the “state of host cells upon treatment” value in assay [4] (treated leaf tissue, TEM) is reported as “plasmolysis”. The “heart rate (time taken for 20 beats)” value in the assay on Zebra fish larvae heart was found to be 13.79 s. Also, the “appressorial function of host penetration” value in assay [5] is listed as “blocked appressorial function of host penetration”. For the same compound, in the assay on wild-type S. pombe [6], the “cell density (OD600 nm) of S. pombe, growth kinetics” value is “inhibitory effects”.
